Series [1] deals with normal human renal cells (RPTEC). Kind of series: Selective cytotoxicity microculture assay, normal human renal cells. Format: cell-based.
Series [2] has as its system ras-transformed human bronchial epithelial cells (TBE). The experiment in a line: Selective cytotoxicity microculture assay, ras-transformed bronchial epithelial cells. Format: cell-based.
In series [3] the target is T1, 50:50 mixture of recombinant mouse PKCα and mouse PKCβ2.
T1 construct: The enzymes are expressed in Sf9 insect cells from recombinant baculovirus and partially purified on DEAE-cellulose and Sephacryl 200 gel filtration
Kind of series: Protein Kinase C (PKC) screening assay. Format: biochemical. The settings on record: Inhibition of Protein Kinase C. The text has this: The Protein Kinase C (PKC) screening assay utilized in the following experiments is similar to standard PKC assays used by many investigators. Its primary features are that 1) the assay utilizes a 50:50 mixture of recombinant mouse PKCα and mouse PKCβ2; 2) employs histone as phosphate-accepting substrate; and 3) the PKC enzymatic activity is activated with phosphatidylserine, TPA and low concentration of calcium, so that both calcium and TPA are somewhat limiting for the extent of activation. In this manner the assay is sensitive to inhibitors of PKC activation. A more detailed description of the assay is provided in the following paragraphs.
The recombinant PKC formulation is a mixture (equal parts by activity) of mouse PKCα and mouse PKCβ2. The enzymes are expressed in Sf9 insect cells from recombinant baculovirus and partially purified on DEAE-cellulose and Sephacryl 200 gel filtration. Sufficient PKC is added to each reaction to provide approximately 4 pmols phosphate transferred in 30 minute (per total reaction.) The reaction is linear over the time when 4 pmols of phosphate is transferred and the reaction remains linear well beyond this time frame.
The PKC screening assay is performed in 96 well polystyrene U bottom micro titer plates, in a total reaction volume of 50 ul. Solution manipulations are performed during the assay utilize a Rainin, motorized EDP-plus M8 eight-channel micropipettor.
In some cases 50% DMSO:water, water, or methanol is substituted (if essential) for the solvent. At least 25 μl of the highest concentration sample to be assayed is transferred to a well in a 96 well U-bottom polystyrene assay plate. Serial 5-fold or 10-fold dilutions (depending on the dose-range desired) are made using the EDP-plus M8 eight-channel pipettor in dilute mode and mixing by repipetting. Using the 8-channel pipettor, 2 μl of each dilution is transferred to the appropriate wells of the plate(s) to be used for each assay. Duplicate assays are performed for each dose, with each assay, allowing six wells (half the row) for three-dose assays, or 12 wells (the whole row) for six-dose assays. In general, extracts and fractions are assayed at three doses: 400, 40 an 4 ug/ml, while pure compounds are tested at six doses: 400, 80, 16, 3.2, 0.64, 0.128 ([…]).

A short description of series [4]: Selective cytotoxicity microculture assay, human renal carcinoma. The settings on record: human, SCI (selectively cytotoxicity index), GI50 (RPTEC)/GI50 (A-498).
For series [5], the system named is human renal carcinoma cells (A-498). Described as above.
Series [6] in a line: In vitro activity of glycoside prodrug (preliminary). The note with it: preliminary results. Format: cell-based. The source says:
(§1) a. […] Scheme 8 illustrates a procedure utilized for the synthesis of glucoside, galactoside or, glucuronic acid analogs of α-terselenophene: [drawing 60]

Series [7] is described as follows: In vivo activity of glycoside prodrug (preliminary). The note with it: preliminary results.
Source text: as §1

Where [8] appears, read: Homo sapiens, RPTEC, read-out: GI50.
Where [9] appears, read: Homo sapiens, Epithelial cell, read-out: GI50.
Where [10] appears, read: Homo sapiens, A498, A-498 human renal carcinoma.

Usually GI50 stands for the concentration giving 50% growth inhibition. As a reminder, the IC50 is the concentration at which inhibition is half-maximal. One may read the melting point as the temperature of the solid-liquid transition.

In brackets after ≈: the same amount, converted by molar mass. Several values for one entry are separate records, joined by “and”; a condition that tells them apart may be missing. Identical values can stand only once. Like-named read-outs stand apart in the source and are kept apart here.

For the compound `c1c[se]c(-c2ccc(-c3ccc[se]3)s2)c1` [compound 676628], the GI50 in series [1] (setting [8]) is 400 µg/mL (≈ 1170 µM); in series [2] (setting [9]) it was 100 µg/mL (≈ 292 µM); in series [5] (setting [10]), 80 µg/mL (≈ 234 µM). For the same compound, the IC50 in series [3] is reported as 1 × 10^0 μg/ml. Moreover, the selectivity ratio in series [4] is 5.
Regarding `O=Cc1ccc(-c2ccc(-c3ccc(C=O)[se]3)[se]2)[se]1` [compound 675245], the IC50 in series [3] was 1 × 10^0 μg/ml.
In the case of `c1csc(-c2ccc(-c3cccs3)[se]2)c1` [compound 675347], the results for the GI50 in series [1] (setting [8]), in series [2] (setting [9]) and in series [5] (setting [10]) were 20 µg/mL (≈ 67.7 µM), 10 µg/mL (≈ 33.9 µM) and 30 µg/mL (≈ 102 µM), respectively. For the same compound, the concentration for half-maximal inhibition (IC50) in series [3] is given as 1 × 10^0 μg/ml. The selectivity ratio in series [4] is under 1.
As to `O=Cc1ccc(-c2ccc(-c3ccc[se]3)s2)[se]1` [compound 676629], the IC50 in series [3] stood at 0.2 µg/mL (≈ 0.54 µM).
Consider `OCc1ccc(-c2ccc(-c3cccs3)[se]2)s1` [compound 675344], for which the GI50 in series [2] is <10^−2 μg/ml and 7 × 10^−6 μg/ml; in series [5] (A-498 human renal carcinoma) it was 3e-07 µg/mL and 6e-08 µg/mL. Moreover, in series [3], the IC50 came to 50 µg/mL (≈ 154 µM). For the same compound, the selectivity ratio in series [4] is over 1000.
As to `O=Cc1ccc(-c2ccc(-c3ccc(C=O)s3)[se]2)s1` [compound 675345], the concentration for half-maximal inhibition (IC50) in series [3] is 0.9 µg/mL (≈ 2.56 µM).
Take `O=Cc1ccc(-c2ccc(-c3ccc[se]3)[se]2)[se]1` [compound 675244]: the IC50 in series [3] is listed as 1 × 10^0 μg/ml.
The compound `c1csc(-c2ccc(-c3ccc[se]3)s2)c1` displayed a melting point of 103 to 104 °C.
With `O=Cc1ccc(-c2ccc(-c3cccs3)[se]2)s1` [compound 675346], in series [3], the IC50 is 0.5 µg/mL (≈ 1.55 µM).
As to `COc1cccc2c1C(=O)c1c(O)c3c(c(O)c1C2=O)C[C@@](O)(C(=O)CO)C[C@@H]3O[C@H]1C[C@H](N)[C@H](O)[C@H](C)O1` [compound 123127], the results for the GI50 in series [1], in series [2] and in series [5] (A-498 human renal carcinoma) were 0.05 µg/mL (≈ 0.092 µM), 0.03 µg/mL (≈ 0.0552 µM) and 0.05 µg/mL (≈ 0.092 µM), respectively. Further, the “SCI (selectively cytotoxicity index)” value in series [5] (GI50 (RPTEC)/GI50 (A-498)) came to 1.
Consider `OCc1ccc(-c2ccc(-c3ccc[se]3)[nH]2)[se]1` [compound 676635], for which the concentration for 50% growth inhibition (GI50) in series [1] (setting [8]) was 2 µg/mL (≈ 5.63 µM); in series [2] (setting [9]) it was 20 µg/mL (≈ 56.3 µM); in series [5] (setting [10]) it was under 0.001 µg/mL. In addition, the IC50 in series [3] is 8 × 10^0 μg/ml. The selectivity ratio in series [4] was over 1000.
As for `c1c[se]c(-c2ccc(-c3ccc[se]3)[nH]2)c1` [compound 676633], the results for the concentration for 50% growth inhibition (GI50) in series [1] (setting [8]), in series [2] (setting [9]) and in series [5] (setting [10]) were 20 µg/mL (≈ 61.5 µM), 10 µg/mL (≈ 30.8 µM) and 100 µg/mL (≈ 308 µM), respectively. For the same compound, the IC50 in series [3] was 6 × 10^0 μg/ml. Moreover, the selectivity ratio in series [4] was under 1.
For `c1c[se]c(-c2ccc(-c3ccc[se]3)[se]2)c1` [compound 674973], the GI50 in series [1] (setting [8]) is 4 µg/mL (≈ 10.3 µM); in series [2] (setting [9]), 4 µg/mL (≈ 10.3 µM); in series [5] (setting [10]), 3 µg/mL (≈ 7.71 µM). Further, the IC50 in series [3] was 7 × 10^0 μg/ml. Further, the selectivity ratio in series [4] is 1.
For the compound `O=Cc1ccc(-c2ccc(-c3ccc(C=O)[se]3)s2)[se]1` [compound 676630], in series [3], the IC50 was 0.9 µg/mL (≈ 2.26 µM).
In the case of `OC[C@H]1O[C@@H](OCc2ccc(-c3ccc(-c4cccs4)s3)s2)[C@H](O)[C@@H](O)[C@@H]1O` [β-D-glucoside of 2-hydroxymethyl-α-terthiophene], the in vitro activity result in series [6] is listed as “retains”. In addition, the in vivo activity entry in series [7] is reported as “retains”.
In the case of `O=Cc1ccc(-c2ccc(-c3ccc[se]3)[nH]2)[se]1` [compound 676634], the GI50 in series [2] was 0.0003 µg/mL and 0.006 µg/mL; in series [5] (A-498 human renal carcinoma), 0.0006 µg/mL and 0.003 µg/mL. Moreover, the IC50 in series [3] turned out to be 0.8 µg/mL (≈ 2.27 µM).

The values are drawn from patent publication US20040063662A1, “Selenophene anti-tumor agents” (priority 1996, published 2004).
